Broadly, the IC50 is the concentration that gives 50% inhibition.

The target in this experiment is T1, Recombinant human KIF18A (1-467 His-tagged) protein (Homo sapiens, UniProt Q8NI77).
T1 construct: Recombinant human KIF18A (1-467 His-tagged) protein; His
T1 sequence (Q8NI77 1-467): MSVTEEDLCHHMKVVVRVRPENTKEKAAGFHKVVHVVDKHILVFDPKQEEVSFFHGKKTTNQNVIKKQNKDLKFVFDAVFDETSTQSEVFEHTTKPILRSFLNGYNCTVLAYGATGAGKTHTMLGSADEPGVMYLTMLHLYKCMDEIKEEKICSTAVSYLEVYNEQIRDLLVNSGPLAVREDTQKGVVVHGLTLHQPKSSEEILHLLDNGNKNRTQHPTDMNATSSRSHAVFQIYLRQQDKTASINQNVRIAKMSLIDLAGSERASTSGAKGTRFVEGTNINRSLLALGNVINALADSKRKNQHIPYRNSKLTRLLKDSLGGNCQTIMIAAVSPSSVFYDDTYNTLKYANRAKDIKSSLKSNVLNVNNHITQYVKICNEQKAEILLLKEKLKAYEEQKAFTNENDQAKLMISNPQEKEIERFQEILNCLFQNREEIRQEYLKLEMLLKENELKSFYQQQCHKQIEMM
T1 sequence (P02550 whole entry partner): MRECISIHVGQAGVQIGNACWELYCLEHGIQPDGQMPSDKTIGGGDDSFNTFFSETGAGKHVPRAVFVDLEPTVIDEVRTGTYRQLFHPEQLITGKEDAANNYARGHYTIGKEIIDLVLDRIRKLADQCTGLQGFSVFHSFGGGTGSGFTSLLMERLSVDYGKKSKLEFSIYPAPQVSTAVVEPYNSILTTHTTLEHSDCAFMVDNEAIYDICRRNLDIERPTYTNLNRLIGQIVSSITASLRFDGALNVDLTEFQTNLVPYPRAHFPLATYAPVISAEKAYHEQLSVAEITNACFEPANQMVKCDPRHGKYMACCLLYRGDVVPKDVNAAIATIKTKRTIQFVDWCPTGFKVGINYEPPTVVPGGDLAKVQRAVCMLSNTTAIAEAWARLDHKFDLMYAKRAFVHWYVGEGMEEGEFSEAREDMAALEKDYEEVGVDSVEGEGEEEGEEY
T1 sequence (P02554 whole entry partner): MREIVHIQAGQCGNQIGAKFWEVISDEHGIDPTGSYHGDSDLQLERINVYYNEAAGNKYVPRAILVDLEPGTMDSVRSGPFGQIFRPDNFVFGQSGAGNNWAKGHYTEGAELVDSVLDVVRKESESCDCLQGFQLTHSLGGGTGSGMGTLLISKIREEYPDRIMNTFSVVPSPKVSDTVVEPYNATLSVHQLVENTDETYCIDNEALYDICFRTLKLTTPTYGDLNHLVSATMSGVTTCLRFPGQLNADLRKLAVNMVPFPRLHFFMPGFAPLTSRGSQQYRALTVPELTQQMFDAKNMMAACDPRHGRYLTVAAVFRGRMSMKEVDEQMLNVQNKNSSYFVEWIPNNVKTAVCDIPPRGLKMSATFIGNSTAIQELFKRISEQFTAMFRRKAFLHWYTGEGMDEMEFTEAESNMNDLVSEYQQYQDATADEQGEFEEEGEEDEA
The experiment is described as follows: KIF18A Enzyme Assay (microtubule-stimulated ATPase activity, ADP-Glo). Format: biochemical. As to conditions: 30 nM KIF18A, 30 μg/mL pig microtubules, 75 μM ATP, ADP-Glo luminescence. The source says: KIF18A Enzyme Assay: Microtubule-stimulated ATPase activity assay is used to measure KIF18A enzyme activity after treatment with compound. Compounds were 2-fold serially diluted in DMSO (Sigma Inc) over 22-point concentration range. Recombinant human KIF18A (1-467 His-tagged) protein was expressed using a baculovirus system and purified by affinity chromatography by Amgen Inc. Concentrations of KIF18A protein, microtubules (MT), and ATP in the reaction were optimized for standardized homogenous enzyme assay using ADP-Glo™ Kinase/ATPase Assay Kit (Promega Inc). The assay measures ADP formed from the ATPase reaction. Prepare reaction buffer [(15 mM Tris, pH 7.5 (Teknova Inc), 10 mM MgCl2 (IT Baker Inc), 0.01% Pluronic F-68 (Life Technologies Inc), 1 μM Taxol (Cytoskeleton Inc), and 30 μg/mL pig microtubules (Cytoskeleton Inc)]. Add compound and KIF18A protein (30 nM) to prepared reaction buffer and incubated for 15 minutes at room temperature, next add ATP (at Kin, 75 μM) to the reaction mixture and incubated for an additional 15 minutes at room temperature. Mix 5 μl of ADP-Glor™ Reagent and 2.5 μl of the reaction mixture and incubate for 40 minutes at room temperature. Add 10 μl ADP-Glorh Detection Reagent and incubate for 40 minutes at room temperature. Read luminescence using EnVision microplate reader with ultra-luminescence module (Perkin Elmer Inc). Concentration-response curve-fitting and IC50 determination was performed using Genedata Screener Software (Standard 15.0.1, Genedata Inc) with a four-parameter logistic regression fit model.
A general note: ADP-Glo turns the ADP formed in a reaction into a luminescent signal.
As for `Cc1cc(Nc2ncnc3cc([S@@](=N)(=O)C4CC4)cc(N4CCC5(CC4)CC5)c23)cc(N2CCC(F)(F)CC2)c1` (single isomer, unassigned) [Example 102-2], the IC50 stood at 262 nM.

As to `Cc1cc(Nc2ncnc3cc(NS(=O)(=O)CCO)cc(N4CCC5(CC4)CC5)c23)nc(N2CCC(F)(F)CC2)c1` [Example 105-1, N-(4-((6-(4,4-Difluoropiperidin-1-yl)-4-methylpyridin-2-yl)amino)-5-(6-azaspiro[2.5]octan-6-yl)quinazolin-7-yl)-2-hydroxyethane-1-sulfonamide], the IC50 worked out at 78 nM.

With `O=S(=O)(CCO)Nc1cc(N2CCC3(CC2)CC3)c2c(Nc3cccc(OCCC(F)(F)F)c3)ncnc2c1` [Example 103-2, N-(5-(6-Azaspiro[2.5]octan-6-yl)-4-((3-(3,3,3-trifluoropropoxy)phenyl)amino)quinazolin-7-yl)-2-hydroxyethane-1-sulfonamide], the IC50 amounted to 61 nM.

Take `Cc1cc(Nc2ncnc3cc(S(C)(=O)=O)cc(N4CCC5(CC4)CC5)c23)cc(N2CCC(F)(F)CC2)c1` [Example 101, N-(3-(4,4-Difluoropiperidin-1-yl)-5-methylphenyl)-7-(methylsulfonyl)-5-(6-azaspiro[2.5]octan-6-yl)quinazolin-4-amine]: the 50% inhibitory concentration (IC50) worked out at 940 nM. Under `Cc1cc(Nc2nc(C)nc3cc(NS(=O)(=O)CCO)cc(N4CCC5(CC4)CC5)c23)cc(N2CCC(F)(F)CC2)c1` [Example 100-1, N-(4-((3-(4,4-Difluoropiperidin-1-yl)-5-methylphenyl)amino)-2-methyl-5-(6-azaspiro[2.5]octan-6-yl)quinazolin-7-yl)-2-hydroxyethane-1-sulfonamide] stands 955 nM. On to `Cc1cc(Oc2ncnc3cc(NS(=O)(=O)CCO)cc(N4CCC5(CC4)CC5)c23)cc(N2CCC(F)(F)CC2)c1` [Example 105-2, N-(4-(3-(4,4-Difluoropiperidin-1-yl)-5-methylphenoxy)-5-(6-azaspiro[2.5]octan-6-yl)quinazolin-7-yl)-2-hydroxyethane-1-sulfonamide], for which the IC50 is 2840 nM. The same measure for `Cc1cc(Nc2ncnc3cc(NS(=O)(=O)CCO)cc(N4CCC5(CC4)CC5)c23)cc(N2CCC(F)(F)CC2)c1` [Example 100, N-(4-((3-(4,4-Difluoropiperidin-1-yl)-5-methylphenyl)amino)-5-(6-azaspiro[2.5]octan-6-yl)quinazolin-7-yl)-2-hydroxyethane-1-sulfonamide]: 49 nM. Turning to `Cc1cc(Nc2ncnc3cccc(N4CCC5(CC4)CC5)c23)cc(N2CCC(F)(F)CC2)c1` [Example 101-1, N-(3-(4,4-Difluoropiperidin-1-yl)-5-methylphenyl)-5-(6-azaspiro[2.5]octan-6-yl)quinazolin-4-amine], the IC50 worked out at 3340 nM. The same measure for `Cc1cc(Nc2ncnc3cc([S@](=N)(=O)C4CC4)cc(N4CCC5(CC4)CC5)c23)cc(N2CCC(F)(F)CC2)c1` (single isomer, unassigned) [Example 102-1]: 73 nM; for `Cc1cc(Nc2ncnc3cc(NS(=O)(=O)CCO)cc(N4CCC5(CC4)CC5)c23)nc(N2CCC(F)(F)CC2)n1` [Example 104, N-(4-((2-(4,4-Difluoropiperidin-1-yl)-6-methylpyrimidin-4-yl)amino)-5-(6-azaspiro[2.5]octan-6-yl)quinazolin-7-yl)-2-hydroxyethane-1-sulfonamide]: 129 nM. As for `Cc1cc(C)cc(Nc2ncnc3cc(NS(=O)(=O)CCO)cc(N4CCC5(CC4)CC5)c23)c1` [Example 103-1, N-(4-((3,5-Dimethylphenyl)amino)-5-(6-azaspiro[2.5]octan-6-yl)quinazolin-7-yl)-2-hydroxyethane-1-sulfonamide], the IC50 stood at 403 nM.

In the case of `Cc1cc(Nc2ncnc3cc(NS(=O)(=O)CCO)cc(N4CCC5(CC4)CC5)c23)cc(N2CCC(F)(F)CC2)n1` [Example 105, N-(4-((2-(4,4-Difluoropiperidin-1-yl)-6-methylpyridin-4-yl)amino)-5-(6-azaspiro[2.5]octan-6-yl)quinazolin-7-yl)-2-hydroxyethane-1-sulfonamide], the concentration for half-maximal inhibition (IC50) was determined as 82 nM. The same measure for `Cc1cc(Nc2nncc3cc(NS(=O)(=O)CCO)cc(N4CCC5(CC4)CC5)c23)cc(N2CCC(F)(F)CC2)c1` [Example 106, N-(1-((3-(4,4-Difluoropiperidin-1-yl)-5-methylphenyl)amino)-8-(6-azaspiro[2.5]octan-6-yl)phthalazin-6-yl)-2-hydroxyethane-1-sulfonamide]: 25 nM; for `Cc1cc(Nc2ncnc3cc(NS(=O)(=O)CCO)cc(N4CCC5(CC4)CC5)c23)cc(OCCC(F)(F)F)c1` [Example 103, 2-Hydroxy-N-(4-((3-methyl-5-(3,3,3-trifluoropropoxy)phenyl)amino)-5-(6-azaspiro[2.5]octan-6-yl)quinazolin-7-yl)ethane-1-sulfonamide]: 175 nM.
